These results are taken from publication PMC4999848 (Toxins, 2016).

For one series, the system named is HepG2 cells. As to the kind of experiment: Deacetylation of 3/15ADON by HepG2 cells. It is filed as in vitro ADME, human. As to conditions: for Disappearance of 3/15ADON, specific activity: HepG2, 37 °C, substrate 100 μM; for % deacetylated: HepG2, 6 h incubation, 100 μM. As for the experimental part:
A498, Caco-2, T84 and HepG2 cells were used as models of human renal, small intestinal, colonic and hepatic cells, respectively. Cells were routinely grown in culture media (Dulbecco’s Modified Eagle Medium (DMEM), DMEM:F12 mixture and Minimum Essential Media (MEM) for A498/Caco-2, T84 and HepG2 cells, respectively) supplemented with 10% fetal calf serum and 1% antibiotics (streptomycin–penicillin solution). Cells were grown in 25 cm^2 ventilated flask maintained at 37 °C in a 5% CO2 incubator. Cells were routinely passed using trypsin-EDTA solution. For deacetylation experiments, cells were seeded onto 6-well plates at an initial density of 200,000 cells/cm^2. HepG2 and A498 were used 3–4 days post-seeding when confluence was reached. Caco-2 and T84 cells were let to differentiate for 10–14 days post-seeding before being used. In all cases, cells were washed three times with sterile phosphate buffer saline PBS^++ (PBS containing 100 mg/L of calcium and magnesium salts) before deacetylation assay.
Stock solutions of DON, 3ADON and 15ADON at 2 mg/mL were prepared in absolute ethanol and stored at −20 °C. For deacetylation assay, 3- or 15ADON were incubated with cells, explants, bacteria or digestive enzymes after being diluted in PBS^++ at a final concentration of 100 μM. PBS^++ solution containing only ethanol (at 1.5% final concentration) or DON (at 100 μM) were used in parallel as negative and positive control, respectively. For cells and explants, deacetylation assay take place in 6-well plates, wells being filled with 2 mL of PBS^++ containing either ethanol, DON, 3- or 15ADON. For fecal bacteria and digestive enzyme assay, deacetylation assay was conducted in 2 mL Eppendorf tubes filled with 1.5 mL of PBS^++ containing either ethanol, DON, 3- or 15ADON. In vitro intestinal digestion by luminal enzymes was performed using porcine enzymes from Sigma-Aldrich and physiological conditions. Briefly, 3- or 15ADON were incubated with pepsin (at 1.6 mg/mL corresponding to 900 U/mL), trypsin (at 0.35 mg/mL corresponding to 6000 U/mL), pancreatic lipase (at 0.75 mg/mL corresponding to 18 U/mL) or pancreatin (at 1.23 mg/mL, lipase activity >10 U/mL, protease activity >100 U/mL, amylase activity >100 U/mL). Except for pepsin for which the digestion was conducted in HCl solution at 10 mM (pH 2.3), in vitro digestion was performed in PBS^++ (pH 7.4). Finally, deacetylation assay was also performed with commercial pooled S9 fractions from human liver, small intestine and kidneys as well as with pure recombinant human CES1 and CES2. […] In all cases, aliquots of the reaction solution were collected immediately (i.e., “time zero” sample) or after the indicated time period at 37 °C and analyzed by HPLC. […]

The nature of series [1]: Deacetylation of 3/15ADON by liver S9 fraction. It is filed as in vitro ADME, human. As for the experimental part:
Stock solutions of DON, 3ADON and 15ADON at 2 mg/mL were prepared in absolute ethanol and stored at −20 °C. For deacetylation assay, 3- or 15ADON were incubated with cells, explants, bacteria or digestive enzymes after being diluted in PBS^++ at a final concentration of 100 μM. PBS^++ solution containing only ethanol (at 1.5% final concentration) or DON (at 100 μM) were used in parallel as negative and positive control, respectively. For cells and explants, deacetylation assay take place in 6-well plates, wells being filled with 2 mL of PBS^++ containing either ethanol, DON, 3- or 15ADON. For fecal bacteria and digestive enzyme assay, deacetylation assay was conducted in 2 mL Eppendorf tubes filled with 1.5 mL of PBS^++ containing either ethanol, DON, 3- or 15ADON. In vitro intestinal digestion by luminal enzymes was performed using porcine enzymes from Sigma-Aldrich and physiological conditions. Briefly, 3- or 15ADON were incubated with pepsin (at 1.6 mg/mL corresponding to 900 U/mL), trypsin (at 0.35 mg/mL corresponding to 6000 U/mL), pancreatic lipase (at 0.75 mg/mL corresponding to 18 U/mL) or pancreatin (at 1.23 mg/mL, lipase activity >10 U/mL, protease activity >100 U/mL, amylase activity >100 U/mL). Except for pepsin for which the digestion was conducted in HCl solution at 10 mM (pH 2.3), in vitro digestion was performed in PBS^++ (pH 7.4). Finally, deacetylation assay was also performed with commercial pooled S9 fractions from human liver, small intestine and kidneys as well as with pure recombinant human CES1 and CES2. S9 fractions and CES1/2 were used at 0.1 mg/mL and 5 μg/mL (corresponding to CES activity >20 U/mL), respectively. In all cases, aliquots of the reaction solution were collected immediately (i.e., “time zero” sample) or after the indicated time period at 37 °C and analyzed by HPLC. […] In all cases, the experiments were conducted in triplicate (n = 3).
Deacetylation was monitoring both in term of disappearance of 3- or 15ADON and formation of DON. Measurement of DON, 3ADON and 15ADON concentrations was performed by reversed-phase HPLC using Waters Alliance System equipped with a Waters 2690 XE separation module and a Waters 996 photodiode array detector (Waters, Saint Quentin Falavier, France). The separation was achieved by mean of a LiChroCart column (125 mm × 4 mm) packed with 5 μm RP-18 Purospher gel (Merck, Darmstadt, Germany) and equipped with a LiChroCart precolumn (4 mm × 4 mm) packed with the same material (Merck). The precolumn and column were placed in room temperature. The elution procedure was carried out at 0.7 mL·min^−1 by a methanol–water solvent, using the following conditions: 40% methanol during 2 min followed by an increase in methanol to 50% at 2.1 min. The detection wavelength was set at 237 nm allowing the best signal/baseline ratio for simultaneous detection of the three DON forms in the incubation mediums. Under these conditions, DON and 3/15ADON were clearly separated, the retention time being around 2.7 min and 5.7 min, for DON and 3/15ADON, respectively (Figure 9). Quantification was based on calibration with the corresponding standard using Millinium Software (Waters, Saint Quentin Falavier, France).

Another series concerns the target T1, recombinant human CES2 (Homo sapiens, UniProt O00748).
T1 sequence (O00748 27-559): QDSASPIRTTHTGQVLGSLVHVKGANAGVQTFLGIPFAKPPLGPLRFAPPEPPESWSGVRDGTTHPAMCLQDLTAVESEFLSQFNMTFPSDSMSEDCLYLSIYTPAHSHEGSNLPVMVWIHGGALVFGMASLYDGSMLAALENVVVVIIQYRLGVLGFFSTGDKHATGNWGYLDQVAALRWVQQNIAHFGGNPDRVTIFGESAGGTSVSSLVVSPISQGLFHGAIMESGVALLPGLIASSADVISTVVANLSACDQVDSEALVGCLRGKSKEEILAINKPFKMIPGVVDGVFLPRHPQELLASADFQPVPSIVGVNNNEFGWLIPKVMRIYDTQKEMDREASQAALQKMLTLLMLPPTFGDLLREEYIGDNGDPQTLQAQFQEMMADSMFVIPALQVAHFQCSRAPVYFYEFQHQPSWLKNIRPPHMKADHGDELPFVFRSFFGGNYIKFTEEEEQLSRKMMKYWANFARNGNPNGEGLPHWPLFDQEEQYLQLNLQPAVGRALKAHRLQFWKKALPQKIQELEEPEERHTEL
As to the kind of experiment: Deacetylation of 3/15ADON by recombinant CES2. In kind it is in vitro ADME. The note with it: 5 μg/mL CES2, up to 24 h, data not shown. Details: purchased R&D Systems. As for the experimental part:
Stock solutions of DON, 3ADON and 15ADON at 2 mg/mL were prepared in absolute ethanol and stored at −20 °C. For deacetylation assay, 3- or 15ADON were incubated with cells, explants, bacteria or digestive enzymes after being diluted in PBS^++ at a final concentration of 100 μM. PBS^++ solution containing only ethanol (at 1.5% final concentration) or DON (at 100 μM) were used in parallel as negative and positive control, respectively. For cells and explants, deacetylation assay take place in 6-well plates, wells being filled with 2 mL of PBS^++ containing either ethanol, DON, 3- or 15ADON. For fecal bacteria and digestive enzyme assay, deacetylation assay was conducted in 2 mL Eppendorf tubes filled with 1.5 mL of PBS^++ containing either ethanol, DON, 3- or 15ADON. In vitro intestinal digestion by luminal enzymes was performed using porcine enzymes from Sigma-Aldrich and physiological conditions. […] In all cases, aliquots of the reaction solution were collected immediately (i.e., “time zero” sample) or after the indicated time period at 37 °C and analyzed by HPLC. […]
Deacetylation was monitoring both in term of disappearance of 3- or 15ADON and formation of DON. […] Quantification was based on calibration with the corresponding standard using Millinium Software (Waters, Saint Quentin Falavier, France).

Setting [2] is: S9 Liver + Benzil 100 μM (Table 1).
Where [3] appears, read: S9 Liver, without benzil (Table 1).
[4] abbreviates: S9 liver 0.1 mg/mL, 37 °C, substrate 100 μM (Table 3).

Several values for one entry are separate records, joined by “and”; a condition that tells them apart may be missing. Identical values can stand only once. Entries after “also recorded” stand apart in the source; their conditions may differ.

Regarding `CC(=O)O[C@@H]1C[C@]2(C)[C@@]3(CO)[C@H](O)C(=O)C(C)=C[C@H]3O[C@H]1[C@@]21CO1` [3ADON, 3-acetyldeoxynivalenol], the “Disappearance of 3/15ADON, specific activity” value in the series on HepG2 cells is 902 pmol/min/mg and 902 ± 78 pmol/min/mg; in series [1] (setting [2]) it was 1583 ± 39 pmol/min/mg; in series [1] (setting [3]), 1729 ± 27 pmol/min/mg; in series [1] (setting [4]) it was 1791 pmol/min/mg and 1791 ± 29 pmol/min/mg. The “% deacetylated” value in the series on HepG2 cells was 52.1% ± 4.5%. Further, on recombinant human CES2, the “Deacetylation activity of CES2 on 3/15ADON” value is “failed at observing any deacetylation activity; also recorded: unable to cause the deacetylation”.
Regarding `CC(=O)OC[C@]12[C@H](O)C(=O)C(C)=C[C@H]1O[C@@H]1[C@H](O)C[C@@]2(C)[C@]12CO2` [15ADON, 15-acetyldeoxynivalenol], the “Disappearance of 3/15ADON, specific activity” value in the series on HepG2 cells is 295 pmol/min/mg and 295 ± 41 pmol/min/mg; in series [1] (setting [2]), 125 ± 15 pmol/min/mg; in series [1] (setting [3]), 166 ± 3.5 pmol/min/mg; in series [1] (setting [4]) it was 208 pmol/min/mg and 208 ± 41 pmol/min/mg. Besides, in the series with HepG2 cells, the “% deacetylated” value is recorded as 16.8% ± 2.4%. Also, the “Deacetylation activity of CES2 on 3/15ADON” value on recombinant human CES2 is listed as “failed at observing any deacetylation activity; also recorded: unable to cause the deacetylation”.
